The text below walks through data of patent publication US8846671B2, “Heterocyclic alkynyl benzene compounds and medical compositions and uses thereof” (Guangzhou Institute of Biomedicine and Health, Chinese …, priority 2010, dated 2014).

SMILES strings stand for the structures. Where “and” joins values, the source holds several entries; their conditions need not be identical. Equal values may be shown once. Where a name gives a salt, the structure may show the parent alone. Read-outs that look alike come from different tables or passages of the source. Where only a bound is given, the exact number is not on record here.

Series [1] has as its system K562 (human chronic myelogenous leukemia cell line). The series can be described thus: tumor cell proliferation, MTT or CCK8 assay, 72 h incubation. Format: cell-based. To be noted: K562, 72 h, read-out: IC50 on tumor cell proliferation, K562. The gist of the method:
(§1)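 Leukemia cell lines were exposed to compounds at 1×10^−10˜1×10^−5M for 72 h. Proliferation was read by MTT (570 nm) or CCK8 (450/650 nm) after a further 4 h incubation. IC50 values were calculated from inhibition of proliferation.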

In series [2] the test system is MEG-01 (Human megakaryoblastic leukaemia cell line). Described as above. It counts as cell-based. Particulars: MEG-01, 72 h, read-out: IC50 on tumor cell proliferation, MEG-01. A digest of the protocol: as §1
The subject of series [3] is MOLT-4 (Human acute lymphoblastic leukemia cell line). The description is as above. To be noted: MOLT-4, 72 h, read-out: IC50 on tumor cell proliferation, MOLT-4. It counts as cell-based. A digest of the protocol:
as §1

For another series, the system named is U937 Cell line. The description is as above. It counts as cell-based. Particulars: Homo sapiens, read-out: IC50 on tumor cell proliferation, U937. A digest of the protocol: as §1
Series [4] relates to K562R cells (imatinib-resistant cell line). Described as above. Format: cell-based. Particulars: Homo sapiens, K-562R, read-out: IC50 on tumor cell proliferation, K562R cells.
For series [5], the target named is BAF3-T315I cells (Ba/F3 cell line stably expressing BCR/ABL T315I) (Homo sapiens, UniProt P00519, T315I, cells depend on it). The series is described as above. It counts as cell-based, mice.
Series [6] can be described thus: Pharmacokinetics and bioavailability in rats. To be noted: SD rats; for Cmax: read-out: Cmax; for Tmax: read-out: Tmax. It counts as in vivo. A digest of the protocol: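 Rats dosed, heparinized blood sampled at set times, plasma stored at -20 °C, acetonitrile-precipitated and analyzed by HPLC-MS. Compartmental and non-compartmental parameters derived; bioavailability from AUC.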

In series [7] the test system is K562 cells (human CML cell line expressing native Bcr-Abl). The series is described as follows: Xenograft model of K562 in nude mice, oral dosing. Particulars: for effect on tumor growth: 25 mg/kg po qd. As for the experimental part: Tumor volume and body weight were monitored once every 2 days (In each group, the tumor volume and body weight at beginning of the day were recorded). Tumor volume was calculated as […]*a*b*b.L×W2/2 (a and b are the length and width of the tumor, respectively). […] The results were shown in Drawings as FIGS. 1, 2, 3, 4, 5, 6, 7 and 8.

Where [8] appears, read: read-out: IC50 on tumor cell proliferation, BAF3-T315I cells; Ba/F3 expressing BCR/ABL T315I, 72 h, Table 1.
The mark [9] stands for this setting: Ba/F3 expressing BCR/ABL T315I, 72 h, Table 1; read-out: IC50 on tumor cell proliferation, BAF3-T315I cells.
Where [10] appears, read: both sexes, Sprague-Dawley, rat, plasma, iv, 10 mg/kg, IV 10 mg/kg.
The mark [11] stands for this setting: both sexes, Sprague-Dawley, rat, plasma, po, 25 mg/kg, PO 25 mg/kg.

Regarding `Cc1cn(-c2cc(NC(=O)c3ccc(C)c(C#Cc4cnc(Nc5ccccc5)nc4)c3)cc(C(F)(F)F)c2)cn1` [D809, 4-methyl-N-(3-(4-methyl-1H-imidazol-1-yl)-5-(trifluoromethyl)phenyl)-3-(2-(2-(phenylamino)pyrimidin-5-yl)ethynyl)benzamide], the IC50 in series [1] is > 100 nM; in series [2], 115 nM; in series [3], > 100 nM; in the series with U937 Cell line (U-937, 72 h) it was > 100 nM; in series [4], 177 nM. For the same compound, in series [5] (setting [8]), the GI50 is 102 nM and 71.1 nM.
In the case of `Cc1cn(-c2cc(NC(=O)c3ccc(C)c(C#Cc4cnc5nccn5c4)c3)cc(C(F)(F)F)c2)cn1` [D799, 3-(2-(imidazo[1,2-a]pyrimidin-6-yl)ethynyl)-4-methyl-N-(3-(4-methyl-1H-imidazol-1-yl)-5-(trifluoromethyl)phenyl)benzamide], the IC50 is 36.2 nM in series [1] (MTT or CCK8, nM); > 100 nM in series [2] (MTT or CCK8, nM); > 100 nM in series [3] (MTT or CCK8, nM); > 100 nM in the series with U937 Cell line (U-937, 72 h, MTT or CCK8, nM); 612 nM in series [4] (imatinib-resistant K562R). Besides, the GI50 in series [5] (setting [9]) was > 10000 nM.
Consider `CNc1ncc(C#Cc2cc(C(=O)Nc3cc(-n4cnc(C)c4)cc(C(F)(F)F)c3)ccc2C)cn1` [D800, 4-methyl-N-(3-(4-methyl-1H-imidazol-1-yl)-5-(trifluoromethyl)phenyl)-3-(2-(2-(methylamino)pyrimidin-5-yl)ethynyl)benzamide], for which the IC50 in series [1] is 1.1 nM; in series [2], > 100 nM; in series [3], > 100 nM; in the series on U937 Cell line (U-937, 72 h) it was > 100 nM; in series [4], 89.7 nM. Further, the GI50 in series [5] (setting [8]) was found to be 99.8 nM. Also, the “pharmacokinetics parameters, overall judgement” value in series [6] (corresponding pharmaceutical acceptable salt forms) was “adequate pharmacokinetics parameters”.
`Cc1ncn(-c2cc(NC(=O)c3ccc(C)c(C#Cc4cnc5ccnn5c4)c3)cc(C(F)(F)F)c2)n1` [D818, 4-methyl-N-(3-(3-methyl-1H-1,2,4-triazol-1-yl)-5-(trifluoromethyl)phenyl)-3-(2-(pyrazolo[1,5-a]pyrimidin-6-yl)ethynyl)benzamide]: the IC50 in series [1] (MTT or CCK8, nM) was 1.38 nM; in series [2] (MTT or CCK8, nM), 210 nM; in series [3] (MTT or CCK8, nM), > 100 nM; in the series with U937 Cell line (U-937, 72 h, MTT or CCK8, nM), > 100 nM; in series [4] (imatinib-resistant K562R) it was 142 nM. For the same compound, the GI50 in series [5] (setting [9]) came out at 394 nM.
Take `Cc1cn(-c2cc(NC(=O)c3ccc(C)c(C#Cc4cnc5ccnn5c4)c3)cc(C(F)(F)F)c2)cn1` [D822 mesylate salt, 4-methyl-N-(3-(4-methyl-1H-imidazol-1-yl)-5-(trifluoromethyl)phenyl)-3-(2-(pyrazolo[1,5-a]pyrimidin-6-yl)ethynyl)benzamide]: in series [7], the “effect on tumor growth” value is given as “completely inhibit the tumor growth”. In series [7] (po, qd), the “anti-tumor effect compared with imatinib” value is listed as “better anti-tumor effect than imatinib” and the “effect on body weight” value is recorded as “did not cause the body weight loss”. In addition, in series [6] (setting [10]), the AUC(0-inf) is 13800 ng·h/mL, the half-life was 189 min, the Cmax was determined as 23100 ng/mL and the Tmax stood at 0.033 h. Besides, in series [6] (setting [11]), the AUC(0-inf) came out at 10700 ng·h/mL, the half-life is 482 min, the Cmax was 814 ng/mL and the Tmax was 3 h. For the same compound, the bioavailability in series [6] (both sexes, Sprague-Dawley, rat, plasma, po, calculated according to AUC data, PO vs IV, read-out: BA(% Oral bioavailability)) was 31.2%.
As to `Cc1cn(-c2cc(NC(=O)c3ccc(C)c(C#Cc4cnc(NCCO)nc4)c3)cc(C(F)(F)F)c2)cn1` [D820, 3-(2-(2-(2-hydroxyethylamino)pyrimidin-5-yl)ethynyl)-4-methyl-N-(3-(4-methyl-1H-imidazol-1-yl)-5-(trifluoromethyl)phenyl)benzamide], the IC50 is 1.37 nM in series [1]; > 100 nM in series [2]; 134 nM in series [3]; > 100 nM in the series on U937 Cell line (U-937, 72 h); 35.2 nM in series [4]. In addition, in series [5] (setting [8]), the GI50 worked out at 276 nM.
Consider `Cc1cn(-c2cc(NC(=O)c3ccc(C)c(C#Cc4cnc(N5CCCCC5)nc4)c3)cc(C(F)(F)F)c2)cn1` [D797, 4-methyl-N-(3-(4-methyl-1H-imidazol-1-yl)-5-(trifluoromethyl)phenyl)-3-(2-(2-(piperidin-1-yl)pyrimidin-5-yl)ethynyl)benzamide], for which the IC50 in series [1] was > 100 nM; in series [2], > 100 nM; in series [3], > 10 nM; with U937 Cell line (U-937, 72 h), > 100 nM; in series [4] it was 3370 nM. Moreover, the GI50 in series [5] (setting [8]) is 13000 nM.
With `CCN(CC)c1ncc(C#Cc2cc(C(=O)Nc3cc(-n4cnc(C)c4)cc(C(F)(F)F)c3)ccc2C)cn1` [D807, 3-(2-(2-(diethylamino)pyrimidin-5-yl)ethynyl)-4-methyl-N-(3-(4-methyl-1H-imidazol-1-yl)-5-(trifluoromethyl)phenyl)benzamide], the IC50 in series [1] (MTT or CCK8, nM) was 128 nM; in series [2] (MTT or CCK8, nM), > 100 nM; in series [3] (MTT or CCK8, nM), > 100 nM; with U937 Cell line (U-937, 72 h, MTT or CCK8, nM) it was 126 nM; in series [4] (imatinib-resistant K562R), 14100 nM. Besides, the GI50 in series [5] (setting [9]) was 13400 nM.
On to `Cc1cn(-c2cc(NC(=O)c3ccc(C)c(C#Cc4cnc(NC(C)(C)C)nc4)c3)cc(C(F)(F)F)c2)cn1` [D806, 3-(2-(2-(tert-butylamino)pyrimidin-5-yl)ethynyl)-4-methyl-N-(3-(4-methyl-1H-imidazol-1-yl)-5-(trifluoromethyl)phenyl)benzamide], for which the IC50 is > 100 nM in series [1]; 131 nM in series [2]; > 100 nM in series [3]; 147 nM in the series with U937 Cell line (U-937, 72 h). Moreover, the GI50 in series [5] (setting [8]) was found to be 1890 nM.
Regarding `Cc1cn(-c2cc(NC(=O)c3ccc(C)c(C#Cc4cnc5ncnn5c4)c3)cc(C(F)(F)F)c2)cn1` [D798, 3-(2-([1,2,4]-triazolo[1,5-a]pyrimidin-6-yl)ethynyl)-4-methyl-N-(3-(4-methyl-1H-imidazol-1-yl)-5-(trifluoromethyl)phenyl)benzamide], the IC50 was 34 nM in series [1] (MTT or CCK8, nM); > 100 nM in series [2] (MTT or CCK8, nM); > 10 nM in series [3] (MTT or CCK8, nM); > 100 nM in the series with U937 Cell line (U-937, 72 h, MTT or CCK8, nM); 1220 nM in series [4] (imatinib-resistant K562R). The GI50 in series [5] (setting [9]) amounted to 1860 nM.
Regarding `Cc1ccc(C(=O)Nc2cc(-n3ccnc3)cc(C(F)(F)F)c2)cc1C#Cc1cnc2ccnn2c1` [D819, N-(3-(1H-imidazol-1-yl)-5-(trifluoromethyl)phenyl)-4-methyl-3-(2-(pyrazolo[1,5-a]pyrimidin-6-yl)ethynyl)benzamide], the IC50 in series [1] (MTT or CCK8, nM) was 1.5 nM; in series [2] (MTT or CCK8, nM), 122 nM; in series [3] (MTT or CCK8, nM) it was 146 nM; in the series with U937 Cell line (U-937, 72 h, MTT or CCK8, nM), 2210 nM; in series [4] (imatinib-resistant K562R) it was 146 nM. In series [5] (setting [9]), the GI50 came out at 3120 nM.
With `CNc1ncc(C#Cc2cc(C(=O)Nc3cc(-n4cnc(C)c4)cc(C(F)(F)F)c3)ccc2C)cn1` [D800 mesylate, 4-methyl-N-(3-(4-methyl-1H-imidazol-1-yl)-5-(trifluoromethyl)phenyl)-3-(2-(2-(methylamino)pyrimidin-5-yl)ethynyl)benzamide], the “effect on tumor growth” value in series [7] is “completely inhibit the tumor growth”. For the same compound, in series [7] (po, qd), the “effect on body weight” value is “did not cause the body weight loss”.
Regarding `Cc1cn(-c2cc(NC(=O)c3ccc(C)c(C#Cc4cnc(N)nc4)c3)cc(C(F)(F)F)c2)cn1` [D803, 3-(2-(2-aminopyrimidin-5-yl)ethynyl)-4-methyl-N-(3-(4-methyl-1H-imidazol-1-yl)-5-(trifluoromethyl)phenyl)benzamide], the IC50 in series [1] is 1.52 nM; in series [2], > 100 nM; in series [3], 132 nM; with U937 Cell line (U-937, 72 h) it was 147 nM; in series [4] it was 63.3 nM. In series [5] (setting [8]), the GI50 was 124 nM and 85.8 nM.
